According to US5135931A, “Pyridinylpiperazine derivatives” (Akzo N.V., priority 1990, dated 1992):
Counter-ions that a name gives are not always drawn.

Tests used:
[1] = molecular target: 5-HT1B (serotonin 1B) receptor (Rattus norvegicus, UniProt P28564); experiment: serotonin binding activity, 5-HT1B; conditions: average test results; read-out: pKi 5-HT1B (converted)
Protocol: (§1) The various compounds of Examples I-VIII were analyzed for serotonin binding activity.

[2] = molecular target: T1, 5-HT1A (serotonin 1A) receptors (Homo sapiens, UniProt P08908); experiment: serotonin binding activity, 5-HT1A; conditions: average test results; read-out: pKi 5-HT1A (converted)
T1 sequence (P08908 1-422): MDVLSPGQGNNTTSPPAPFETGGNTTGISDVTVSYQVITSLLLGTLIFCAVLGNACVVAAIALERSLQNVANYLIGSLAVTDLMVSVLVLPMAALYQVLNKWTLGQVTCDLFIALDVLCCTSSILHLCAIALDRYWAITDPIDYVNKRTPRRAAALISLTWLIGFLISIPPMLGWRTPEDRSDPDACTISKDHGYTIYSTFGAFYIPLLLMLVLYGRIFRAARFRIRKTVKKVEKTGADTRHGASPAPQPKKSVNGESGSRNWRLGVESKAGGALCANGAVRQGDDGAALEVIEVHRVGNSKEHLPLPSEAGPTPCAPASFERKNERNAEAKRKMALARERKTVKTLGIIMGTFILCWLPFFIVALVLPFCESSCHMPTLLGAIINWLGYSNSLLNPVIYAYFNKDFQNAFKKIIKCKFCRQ
Protocol: as §1

Chain of 5-HT1B (serotonin 1B) receptor (P28564 whole entry): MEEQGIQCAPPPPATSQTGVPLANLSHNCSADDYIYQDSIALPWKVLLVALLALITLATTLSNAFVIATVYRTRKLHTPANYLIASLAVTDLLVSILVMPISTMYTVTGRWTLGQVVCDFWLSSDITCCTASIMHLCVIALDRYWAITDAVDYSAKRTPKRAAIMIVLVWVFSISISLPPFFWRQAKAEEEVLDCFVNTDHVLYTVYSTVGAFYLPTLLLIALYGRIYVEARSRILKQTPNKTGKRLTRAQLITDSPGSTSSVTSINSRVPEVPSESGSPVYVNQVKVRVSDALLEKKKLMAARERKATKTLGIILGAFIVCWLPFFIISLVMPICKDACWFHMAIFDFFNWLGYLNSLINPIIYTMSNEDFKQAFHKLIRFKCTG

SMILES	Ki [1]	Ki [2]
O=C(NCCN1CCN(c2cccc(C(F)(F)F)n2)CC1)c1ccc(F)cc1 [Example I, 4-fluoro-N-[2-[4-[6-(trifluoromethyl)-2-pyridinyl]-1-piperazinyl]ethyl]benzamide (E)-2-butenedioate (1:1) salt]	> 10 µM	1.58 nM
O=C(NCCCCN1CCN(c2cccc(C(F)(F)F)n2)CC1)c1ccc(F)cc1 [Example IV, 4-fluoro-N-[4-[4-[6-(trifluoromethyl) -2-pyridinyl]-1-piperazinyl]butyl]benzamide (E)-2-butenedioate (2:1) salt]	0.501 µM	7.94 nM
O=C(NCCN1CCN(c2cccc(C(F)(F)F)n2)CC1)c1ccccc1 [II, N-[2-[4-[6-(trifluoromethyl)-2-pyridinyl]-1-piperazinyl]ethyl]benzamide (E)-2-butenedioate (1:1) salt]	10 µM	1 nM
O=C(NCCN1CCN(c2cc(C(F)(F)F)ccn2)CC1)c1ccc(F)cc1 [III, 4-fluoro-N-[2-[4-[4-(trifluoromethyl) -2-pyridinyl]-1-piperazinyl]ethyl]benzamide (E)-2-butenedioate (1:1) salt]	10 µM	20 nM
O=C(NCCCCN1CCN(c2cccc(C(F)(F)F)n2)CC1)c1ccccc1 [V, N-[4-[4-[6-(trifluoromethyl)-2-pyridinyl]-1-piperazinyl]butyl]benzamide (E)-2-butenedioate (2:1) salt]	1 µM	6.31 nM
CN(CCN1CCN(c2cccc(C(F)(F)F)n2)CC1)C(=O)c1ccc(F)cc1 [VII, 4-fluoro-N-[2-[4-(6-(trifluoromethyl)-2-pyridinyl)-1-piperazinyl]ethyl]-N-methylbenzamide]	> 10 µM	31.6 nM
CN(CCCN1CCN(c2cccc(C(F)(F)F)n2)CC1)C(=O)c1ccc(F)cc1 [VIII, 4-fluoro-N-[3-[4-(6-(trifluoromethyl)-2-pyridinyl)-1-piperazinyl]propyl]-N-methylbenzamide]	> 10 µM	63.1 nM
O=C(NCCN1CCN(c2cccc(C(F)(F)F)n2)CC1)c1cccnc1 [VI]	5.01 µM	50.1 nM
